In patent publication US8183201B2 (priority 2006, dated 2012):
Where two headings read alike, the source gives them in different places.

Key:
[1] = target: T1, integrin αIIbβ3 (Homo sapiens, UniProt P05106+P08514); assay type: cell-based
T1 construct: host or cells: CHO (CHO-αIIbβ3)

[2] = test system: osteoclast precursors (bone marrow hematopoietic cells); assay type: cell-based, SD rats; conditions: read-out: IC50 Osteoclastogenesis
[3] = test system: ovariectomized (OVX) mice; set-up: species or system ICR mice; conditions: mouse, in vivo
[4] = test system: ovariectomized (OVX) rats; conditions: rat, in vivo, po, 1.5 mg/kg
[5] = test system: osteoarthritic rats; conditions: rat, in vivo
[6] = test system: VEGF-induced angiogenesis; set-up: species or system C57BL/6 mice; conditions: mouse, in vivo
[7] = target: T2, Calcitonin (Homo sapiens, UniProt P30988); assay type: binding
T2 construct: MDS Pharma services, Taipei, Taiwan (contract assay)
T2 sequence (P30988 25-474): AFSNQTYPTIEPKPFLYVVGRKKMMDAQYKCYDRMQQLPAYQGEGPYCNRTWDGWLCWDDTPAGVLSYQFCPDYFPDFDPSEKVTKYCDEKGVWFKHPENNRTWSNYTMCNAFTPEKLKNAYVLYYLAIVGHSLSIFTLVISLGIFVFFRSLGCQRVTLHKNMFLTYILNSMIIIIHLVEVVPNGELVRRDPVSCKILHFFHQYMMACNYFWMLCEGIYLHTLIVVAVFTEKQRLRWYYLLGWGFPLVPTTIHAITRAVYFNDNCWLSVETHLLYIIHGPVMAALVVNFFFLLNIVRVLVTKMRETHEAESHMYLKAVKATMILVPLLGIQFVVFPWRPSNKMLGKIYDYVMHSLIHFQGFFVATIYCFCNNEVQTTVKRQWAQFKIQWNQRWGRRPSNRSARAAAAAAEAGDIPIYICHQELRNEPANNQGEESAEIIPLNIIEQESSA

[8] = target: T3, Endothelin ETA (Homo sapiens, UniProt P25101); assay type: binding
T3 construct: MDS Pharma services, Taipei, Taiwan (contract assay)
T3 sequence (P25101 21-427): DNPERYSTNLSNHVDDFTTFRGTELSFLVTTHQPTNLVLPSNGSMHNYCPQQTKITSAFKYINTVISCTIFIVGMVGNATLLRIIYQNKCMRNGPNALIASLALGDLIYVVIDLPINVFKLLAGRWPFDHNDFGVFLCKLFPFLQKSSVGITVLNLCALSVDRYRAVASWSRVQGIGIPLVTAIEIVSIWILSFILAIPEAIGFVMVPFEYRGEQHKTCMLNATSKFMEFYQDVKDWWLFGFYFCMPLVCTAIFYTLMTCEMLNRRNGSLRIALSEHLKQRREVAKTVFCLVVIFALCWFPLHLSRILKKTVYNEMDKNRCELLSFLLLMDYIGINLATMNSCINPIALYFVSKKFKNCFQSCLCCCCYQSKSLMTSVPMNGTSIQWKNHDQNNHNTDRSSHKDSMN

[9] = target: T4, Endothelin ETB (Homo sapiens, UniProt P24530); assay type: binding
T4 construct: MDS Pharma services, Taipei, Taiwan (contract assay)
T4 sequence (P24530 27-442): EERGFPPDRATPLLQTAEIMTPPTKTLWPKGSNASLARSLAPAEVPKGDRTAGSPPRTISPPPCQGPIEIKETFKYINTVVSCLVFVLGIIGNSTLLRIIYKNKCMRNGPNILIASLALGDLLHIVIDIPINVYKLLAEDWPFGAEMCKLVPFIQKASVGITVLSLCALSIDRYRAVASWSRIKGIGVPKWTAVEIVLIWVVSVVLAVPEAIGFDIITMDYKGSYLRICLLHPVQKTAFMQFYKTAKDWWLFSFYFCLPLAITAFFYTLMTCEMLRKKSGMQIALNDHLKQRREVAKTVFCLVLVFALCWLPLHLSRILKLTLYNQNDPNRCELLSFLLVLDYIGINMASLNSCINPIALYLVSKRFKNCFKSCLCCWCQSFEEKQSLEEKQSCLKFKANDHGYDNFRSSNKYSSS

[10] = target: T5, Insulin (Rattus norvegicus, UniProt P15127); assay type: binding
T5 construct: MDS Pharma services, Taipei, Taiwan (contract assay)
T5 sequence (P15127 27-1383): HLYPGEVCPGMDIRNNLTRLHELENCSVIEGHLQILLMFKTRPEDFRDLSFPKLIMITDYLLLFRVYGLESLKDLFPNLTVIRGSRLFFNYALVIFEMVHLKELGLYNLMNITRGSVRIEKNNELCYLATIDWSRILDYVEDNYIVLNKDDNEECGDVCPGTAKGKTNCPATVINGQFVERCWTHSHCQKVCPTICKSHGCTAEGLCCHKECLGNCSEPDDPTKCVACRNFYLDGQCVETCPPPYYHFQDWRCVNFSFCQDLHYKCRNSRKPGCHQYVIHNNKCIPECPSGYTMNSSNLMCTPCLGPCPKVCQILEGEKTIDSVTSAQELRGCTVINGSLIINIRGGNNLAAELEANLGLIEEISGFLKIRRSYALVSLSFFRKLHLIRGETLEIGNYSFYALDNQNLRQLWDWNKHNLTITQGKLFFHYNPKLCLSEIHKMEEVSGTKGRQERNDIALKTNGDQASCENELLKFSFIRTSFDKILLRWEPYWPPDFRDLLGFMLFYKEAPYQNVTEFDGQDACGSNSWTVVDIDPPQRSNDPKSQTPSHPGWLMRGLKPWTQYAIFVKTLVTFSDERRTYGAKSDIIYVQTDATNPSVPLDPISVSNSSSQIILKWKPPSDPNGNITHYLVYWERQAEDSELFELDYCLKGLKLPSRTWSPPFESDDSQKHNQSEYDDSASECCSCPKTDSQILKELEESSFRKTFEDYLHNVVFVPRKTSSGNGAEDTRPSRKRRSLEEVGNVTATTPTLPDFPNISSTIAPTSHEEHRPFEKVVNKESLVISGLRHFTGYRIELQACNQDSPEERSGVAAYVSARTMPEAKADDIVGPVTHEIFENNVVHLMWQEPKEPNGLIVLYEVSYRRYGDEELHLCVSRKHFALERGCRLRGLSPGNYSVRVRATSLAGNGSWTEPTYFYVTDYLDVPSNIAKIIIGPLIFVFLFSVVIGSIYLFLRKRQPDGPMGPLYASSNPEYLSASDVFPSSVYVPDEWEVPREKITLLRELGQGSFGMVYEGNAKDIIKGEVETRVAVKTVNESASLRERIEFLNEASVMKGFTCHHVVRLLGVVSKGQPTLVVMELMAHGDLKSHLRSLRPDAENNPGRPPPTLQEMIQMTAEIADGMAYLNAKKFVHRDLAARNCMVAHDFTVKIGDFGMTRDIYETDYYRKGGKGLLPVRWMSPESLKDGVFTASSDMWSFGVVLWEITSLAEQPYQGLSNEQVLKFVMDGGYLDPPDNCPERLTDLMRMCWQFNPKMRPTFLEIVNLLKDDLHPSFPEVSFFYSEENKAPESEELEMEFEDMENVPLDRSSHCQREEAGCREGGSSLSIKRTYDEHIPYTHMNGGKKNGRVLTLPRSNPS

[11] = test system: Sodium Channel (Site 2); assay type: binding
[12] = test system: TNF; assay type: binding
[13] = test system: hypoxic-induced angiogenesis; set-up: species or system mice; conditions: mouse, in vivo
[14] = mouse, in vivo
[15] = test system: human breast cancer MDA-MB-231 cells; conditions: mouse, in vivo

RD: rhodostomin variant having a RGD motif variant ^48PRLDMP^53, SEQ ID NO: 36
increase of IC50 in inhibition of integrin αIIbβ3 as compared to Rho [1]: more than 104 fold
IC50 [2]: 3.32 nM
BMC [3]: 0.582 ± 0.009 g
BMD [3]: 0.085 ± 0.002 g/cm^2
C-terminal telopeptide of COL(1)α1 chain [3]: 533 ± 27.4 ng/mL
BMC ([3]; po, 1.5 mg/kg): 0.627 ± 0.008 g
BMD ([3]; po, 1.5 mg/kg): 0.091 ± 0.001 g/cm^2
C-terminal telopeptide of COL(1)α1 chain ([3]; po, 1.5 mg/kg): 391 ± 8.3 ng/mL
BMC, Femur [4]: 0.441 ± 0.018 g
BMC, Tibia [4]: 0.299 ± 0.011 g
BMD, Femur [4]: 0.135 ± 0.004 g/cm^2
BMD, Tibia [4]: 0.113 ± 0.009 g/cm^2
Bone length, Femur [4]: 3.71 ± 0.06 mm
Bone length, Tibia [4]: 4.01 ± 0.03 mm
Bone volume [4]: 16.3 ± 2.7 %
Wet weight, Femur [4]: 985.3 ± 9.8 mg
Wet weight, Tibia [4]: 749 ± 20.1 mg
ovariectomy-induced increase in osteoclast activity (serum C-terminal telopeptide of type-I collagen) [4]: reversed the ovariectomy-induced increase in osteoclast activity
osteoarthritis-induced elevation of serum cytokines (c-reactive protein, IL-1β, IL-6) [5]: markedly inhibited the osteoarthritis-induced elevation of cytokines
hemoglobin content in MATRIGEL plugs [6]: reduced hemoglobin content
inhibition of angiogenesis in MATRIGEL plug [6]: effective in inhibiting angiogenesis
Inhibition, Calcitonin [7]: 4%
Inhibition, Endothelin ETA [8]: 26%
Inhibition, Endothelin ETB [9]: 10%
Inhibition, Insulin [10]: −6%
Inhibition, Sodium Channel (Site 2) [11]: 2%
Inhibition, TNF [12]: 4%
reduction of angiogenesis (blood vessel profiles in the inner retina) compared to vehicle ROP group [13]: about 46%
effect on tail bleeding (clotting) time [14]: only slightly affected the clotting time
MDA-MB-231-induced tumor growth in bone [15]: inhibited MDA-MB-231-induced increase in tumor growth in bone
blood counts of RBC, WBC and platelet [15]: did not affect the blood counts of RBC, WBC and platelet
tumor-induced hypercalcemia [15]: prevented
tumor-induced increase in osteoclast activity [15]: prevented the tumor-induced increase in osteoclast activity
